From PubChem BioAssay AID2086 (NMMLSC, 2009)
The source made the active and inactive calls. How the calls were made is not given here.

Target: Induced myeloid leukemia cell differentiation protein Mcl-1 (Homo sapiens) (UniProt Q07820)
Assay: Mcl-1/Bim interaction regulators – biochemical, bead-based flow cytometry, multiplex, HTS hits, confirmation (AID 2086)
Settings: Bim-Mcl-1 interaction; for response, inhibition or activation: at 100 µM (top of the series)

Induced myeloid leukemia cell differentiation protein Mcl-1 (Homo sapiens), sequence (Q07820 whole entry, looked up): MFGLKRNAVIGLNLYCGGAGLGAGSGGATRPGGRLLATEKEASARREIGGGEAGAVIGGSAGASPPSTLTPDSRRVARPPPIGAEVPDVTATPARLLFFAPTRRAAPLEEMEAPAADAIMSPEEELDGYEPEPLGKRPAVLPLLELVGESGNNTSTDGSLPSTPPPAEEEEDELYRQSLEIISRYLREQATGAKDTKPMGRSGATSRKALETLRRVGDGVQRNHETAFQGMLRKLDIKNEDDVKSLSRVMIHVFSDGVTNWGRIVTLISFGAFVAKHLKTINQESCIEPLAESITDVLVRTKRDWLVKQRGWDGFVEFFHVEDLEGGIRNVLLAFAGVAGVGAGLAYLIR

Row | Structure (SMILES) | response, inhibition or activation | EC50
1 | Clc1nc(NCc2cccnc2)nc(N2CCOCC2)n1 | inactive | 
2 | CNC(CC(=O)c1ccc([N+](=O)[O-])cc1)C(Cl)(Cl)Cl (stereo unspecified) | inactive | 
3 | CCN(CC)c1ccc(NC(=O)c2ccccc2Br)cc1S(=O)(=O)Nc1ccccc1OC | inactive | 
4 | O=[N+]([O-])c1c(NCCCO)cc(Sc2nc3ccccc3s2)c2nonc12 | inactive | 
5 | Cc1ccc(-c2cc(-c3ccc(C)o3)nc(N)c2C#N)cc1 | inactive | 
6 | COc1ccc(N2C(=O)C(Cl)=C(NC3C(=O)N(c4ccccc4)N(C)C3C)C2=O)cc1 (stereo unspecified) |  | inactive
7 | O=C1NC(=O)C(=Cc2ccc(-c3cc(Cl)ccc3[N+](=O)[O-])o2)C(=O)N1 | inactive | 
8 | CCN1C(=O)/C(=C\C=C2/C=CC=CN2CC)SC1=S | inactive | 
9 | Oc1ccc(NCc2ccccc2OCc2ccccc2)cc1 | inactive | 
10 | CCOc1ccccc1CNc1ccc(O)cc1 | inactive | 
11 | O=C(/C=C/c1ccc(-c2ccccc2[N+](=O)[O-])o1)c1ccccc1 | inactive | 
12 | O=C1c2ccccc2C(=O)N1CN(C(=O)COc1ccc(Cl)cc1Cl)c1cccc(F)c1 | inactive | 
13 | S=c1[nH]cc(-c2ccccc2)n1-c1ccccc1 | inactive | 
14 | O=C(Nc1nnc(COc2ccc(Cl)cc2)s1)c1ccco1 | inactive | 
15 | Cc1cc(-c2cc(-c3ccc(Cl)cc3)nc(N)c2C#N)co1 | inactive | 
16 | O=c1c2c(n3nnnc3n1Cc1ccccc1)-c1ccccc1CC21CCCC1 | inactive | 

Row | Structure (SMILES) | response, inhibition or activation | EC50
17 | O=C1/C(=C\c2ccco2)NC(=S)N1c1ccccc1 | inactive | 
18 | COc1ccccc1NC1=C(NC(C)=O)C(=O)c2ccccc2C1=O | inactive | 
19 | COc1cc(CNc2ccc3[nH]c(=O)[nH]c3c2)cc(Br)c1OCC(=O)NC(C)(C)C | inactive | 
20 | O=C1C(Cl)=C(N2CCN(c3ccccc3[N+](=O)[O-])CC2)C(=O)c2ccccc21 | inactive | 
21 | CCN(CC)C(=O)COC(=O)c1cc(-c2ccco2)nc2ccccc12 | inactive | 
22 | Cc1ccc(-c2cc(C(=O)Nc3nccs3)c3ccccc3n2)o1 | inactive | 
23 | Cc1nnc(Sc2cc(NCCO)c([N+](=O)[O-])c3nonc23)s1 | inactive | 
24 | COc1ccccc1-n1c(-c2ccccc2)c[nH]c1=S | inactive | 
25 | CCN(CC)c1ccc(NC(=O)c2ccccc2F)cc1S(=O)(=O)Nc1ccccc1OC | inactive | 
26 | CC(=O)OCCCNc1cc(Sc2nc3ccccc3s2)c2nonc2c1[N+](=O)[O-] | inactive | 
27 | C=CS(=O)(=O)c1sc(Cl)c(N2CCOCC2)c1[N+](=O)[O-] | inactive | 
28 | Cc1ccc(-c2cc(-c3ccc(F)cc3)c(C#N)c(N)n2)o1 | inactive | 
29 | CCN(CC)c1ccc(NC(=O)COc2ccccc2C)cc1S(=O)(=O)Nc1ccccc1OC | inactive | 
30 | CC(=O)Nc1ccc(-n2cc(-c3ccccc3)[nH]c2=S)cc1 | inactive | 
31 | CN(CCO)c1cc(Sc2nc3ccccc3s2)c2nonc2c1[N+](=O)[O-] | inactive | 
